Assay results from patent US8513238B2 (Hoffmann-La Roche Inc., priority 2010, dated 2013).
Counter-ions that a name gives are not always drawn.

Biological target: T1, human V1a receptor (Homo sapiens, UniProt P37288)
T1 construct: expressed in transfected cells; host or cells: HEK293 cells, transiently transfected; membranes prepared
Assay: human V1a receptor binding (3H-Vasopressin SPA, HEK293 membranes)
Settings: membranes of HEK293 cells transiently transfected with human V1a receptor, Ki by Cheng-Prussoff
Experimental: The human V1a receptor was cloned by RT-PCR from total human liver RNA. The coding sequence was subcloned in an expression vector after sequencing to confirm the identity of the amplified sequence. […] Cell membranes were prepared from HEK293 cells transiently transfected with the expression vector and grown in 20 liter fermenters with the following protocol.
50 g of cells are resuspended in 30 ml freshly prepared ice cold Lysis buffer (50 mM HEPES, 1 mM EDTA, 10 mM magnesium dichloride adjusted to pH=7.4+complete cocktail of protease inhibitor (Roche Diagnostics)). Homogenized with Polytron for 1 min and sonicated on ice for 2×2 minutes at 80% intensity (Vibracell sonicator). The preparation is centrifuged 20 min at 500 g at 4° C., the pellet is discarded and the supernatant centrifuged 1 hour at 43,000 g at 4° C. (19,000 rpm). The pellet is resuspended in 12.5 ml Lysis buffer+12.5 ml sucrose 20% and homogenized using a Polytron for 1-2 min. The protein concentration is determined by the Bradford method and aliquots are stored at −80° C. until use. For binding studies 60 mg Yttrium silicate SPA beads (Amersham®) are mixed with an aliquot of membrane in binding buffer (50 mM Tris, 120 mM sodium chloride, 5 mM potassium chloride, 2 mM calcium dichloride, 10 mM magnesium dichloride) for 15 minutes with mixing. 50 μl of bead/membrane mixture is then added to each well of a 96 well plate, followed by 50 μl of 4 nM 3H-Vasopressin (American Radiolabeled Chemicals). For total binding measurement 100 μl of binding buffer are added to the respective wells, for non-specific binding 100 μl of 8.4 mM cold vasopressin and for compound testing 100 μl of a serial dilution of each compound in 2% dimethyl sulfoxide. The plate is incubated 1 h at room temperature, centrifuged 1 min at 1000 g and counted on a Packard Top-Count. Non-specific binding counts are subtracted from each well and data is normalized to the maximum specific binding set at 100%. To calculate an IC50 the curve is fitted using a non-linear regression model (XLfit) and the Ki is calculated using the Cheng-Prussoff equation.

T1 sequence (P37288 whole entry): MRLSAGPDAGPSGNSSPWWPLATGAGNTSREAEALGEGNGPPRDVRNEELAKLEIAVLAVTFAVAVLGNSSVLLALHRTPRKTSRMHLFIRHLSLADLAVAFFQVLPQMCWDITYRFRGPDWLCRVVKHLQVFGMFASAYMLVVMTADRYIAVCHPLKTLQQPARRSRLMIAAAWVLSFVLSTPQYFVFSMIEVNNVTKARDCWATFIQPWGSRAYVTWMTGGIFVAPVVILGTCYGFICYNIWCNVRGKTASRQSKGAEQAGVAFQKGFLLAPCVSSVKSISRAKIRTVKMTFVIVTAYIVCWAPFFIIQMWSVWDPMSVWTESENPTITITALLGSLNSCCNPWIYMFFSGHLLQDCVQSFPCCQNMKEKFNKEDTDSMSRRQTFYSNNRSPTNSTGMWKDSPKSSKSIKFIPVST

Structure (SMILES)	pKi (hV1a)
Cc1cc([C@H]2CC[C@H](c3nnc4n3-c3ccc(Cl)cc3CN(C(C)C)C4)CC2)no1 [Example 26, trans-8-Chloro-5-isoproyl-1-[4-(5-methyl-isoxazol-3-yl)-cyclohexyl]-5,6-dihydro-4H-2,3,5,10b-tetraaza-benzo[e]azulene]	9.45

Same assay, conditions: membranes of HEK293 cells transiently transfected with human V1a receptor, Ki by Cheng-Prussoff, read-out: pKi (hV1a) (converted)

Structure (SMILES)	Ki [nM]
Cc1cc([C@H]2CC[C@H](c3nnc4n3-c3ccc(Cl)cc3CN(C)C4)CC2)no1 [Example 24, trans-8-Chloro-1-[4-(5-methyl-isoxazol-3-yl)-cyclohexyl]-5-methyl-5,6-dihydro-4H-2,3,5,10b-tetraaza-benzo[e]azulene]	1.2
CCN1Cc2cc(Cl)ccc2-n2c(nnc2[C@H]2CC[C@H](c3cc(C)on3)CC2)C1 [Example 25, trans-8-Chloro-5-ethyl-1-[4-(5-methyl-isoxazol-3-yl)-cyclohexyl]-5,6-dihydro-4H-2,3,5,10b-tetraaza-benzo[e]azulene]	1.74
Cc1cc([C@H]2CC[C@H](c3nnc4n3-c3ccc(Cl)cc3CN(CC(F)F)C4)CC2)no1 [Example 28, trans-8-Chloro-5-(2,2-difluoro-ethyl)-1-[4-(5-methyl-isoxazol-3-yl)-cyclohexyl]-5,6-dihydro-4H-2,3,5,10b-tetraaza-benzo[e]azulene]	0.603
COCCN1Cc2cc(Cl)ccc2-n2c(nnc2[C@H]2CC[C@H](c3cc(C)on3)CC2)C1 [Example 29, trans-8-Chloro-5-(2-methoxy-ethyl)-1-[4-(5-methyl-isoxazol-3-yl)-cyclohexyl]-5,6-dihydro-4H-2,3,5,10b-tetraaza-benzo[e]azulene]	1.58
CNCCN1Cc2cc(Cl)ccc2-n2c(nnc2[C@H]2CC[C@H](c3cc(C)on3)CC2)C1 [Example 30, trans-(2-{8-Chloro-1-[4-(5-methyl-isoxazol-3-yl)-cyclohexyl]-4H,6H-2,3,5,10b-tetraaza-benzo[e]azulen-5-yl}-ethyl)-methyl-amine]	25.1
CC(=O)N1Cc2cc(Cl)ccc2-n2c(nnc2[C@H]2CC[C@H](c3cc(C)on3)CC2)C1 [Example 31, trans-1-{8-Chloro-1-[4-(5-methyl-isoxazol-3-yl)-cyclohexyl]-4H,6H-2,3,5,10b-tetraaza-benzo[e]azulen-5-yl}-ethanone]	1.74
Cc1cc([C@H]2CC[C@H](c3nnc4n3-c3ccc(Cl)cc3CN(C(=O)CO)C4)CC2)no1 [Example 32, trans-1-{8-Chloro-1-[4-(5-methyl-isoxazol-3-yl)-cyclohexyl]-4H,6H-2,3,5,10b-tetraaza-benzo[e]azulen-5-yl}-2-hydroxy-ethanone]	2.88
Cc1cc([C@H]2CC[C@H](c3nnc4n3-c3ccc(Cl)cc3CN(C(=O)CN(C)C)C4)CC2)no1 [Example 33, trans-1-{8-Chloro-1-[4-(5-methyl-isoxazol-3-yl)-cyclohexyl]-4H,6H-2,3,5,10b-tetraaza-benzo[e]azulen-5-yl}-2-dimethylamino-ethanone hydroformate]	2
Cc1cc([C@H]2CC[C@H](c3nnc4n3-c3ccc(Cl)cc3CN(S(C)(=O)=O)C4)CC2)no1 [Example 34, trans-8-Chloro-5-methanesulfonyl-1-[4-(5-methyl-isoxazol-3-yl)-cyclohexyl]-5,6-dihydro-4H-2,3,5,10b-tetraaza-benzo[e]azulene]	0.275
Cc1cc([C@H]2CC[C@H](c3nnc4n3-c3ccc(Cl)cc3CN(S(=O)(=O)N(C)C)C4)CC2)no1 [Example 35, trans-8-Chloro-1-[4-(5-methyl-isoxazol-3-yl)-cyclohexyl]-4H,6H-2,3,5,10b-tetraaza-benzo[e]azulene-5-sulfonic acid dimethylamide]	0.501
Cc1cc([C@H]2CC[C@H](c3nnc4n3-c3ccc(F)cc3CN(C(=O)OC(C)(C)C)C4)CC2)no1 [Example 36, trans-8-Fluoro-1-[4-(5-methyl-isoxazol-3-yl)-cyclohexyl]-4H,6H-2,3,5,10b-tetraaza-benzo[e]azulene-5-carboxylic acid tert-butyl ester]	0.776
Cc1cc([C@H]2CC[C@H](c3nnc4n3-c3ccc(F)cc3CNC4)CC2)no1 [Example 37, trans-8-Fluoro-1-[4-(5-methyl-isoxazol-3-yl)-cyclohexyl]-5,6-dihydro-4H-2,3,5,10b-tetraaza-benzo[e]azulene]	91.2
Cc1cc([C@H]2CC[C@H](c3nnc4n3-c3ccc(F)cc3CN(C)C4)CC2)no1 [Example 38, trans-8-Fluoro-1-[4-(5-methyl-isoxazol-3-yl)-cyclohexyl]-5-methyl-5,6-dihydro-4H-2,3,5,10b-tetraaza-benzo[e]azulene]	18.6
Cc1onc([C@H]2CC[C@H](c3nnc4n3-c3ccc(Cl)cc3CN(C(=O)OC(C)(C)C)C4)CC2)c1C [Example 39, trans-8-Chloro-1-[4-(4,5-dimethyl-isoxazol-3-yl)-cyclohexyl]-4H,6H-2,3,5,10b-tetraaza-benzo[e]azulene-5-carboxylic acid tert-butyl ester]	0.2
Cc1onc([C@H]2CC[C@H](c3nnc4n3-c3ccc(Cl)cc3CNC4)CC2)c1C [Example 40, trans-8-Chloro-1-[4-(4,5-dimethyl-isoxazol-3-yl)-cyclohexyl]-5,6-dihydro-4H-2,3,5,10b-tetraaza-benzo[e]azulene]	4.79
Cc1onc([C@H]2CC[C@H](c3nnc4n3-c3ccc(Cl)cc3CN(C)C4)CC2)c1C [Example 41, trans-8-Chloro-1-[4-(4,5-dimethyl-isoxazol-3-yl)-cyclohexyl]-5-methyl-5,6-dihydro-4H-2,3,5,10b-tetraaza-benzo[e]azulene]	0.501
Cc1onc([C@H]2CC[C@H](c3nnc4n3-c3ccc(Cl)cc3CN(C(=O)OC(C)(C)C)C4)CC2)c1Cl [Example 42, trans-8-Chloro-1-[4-(4-chloro-5-methyl-isoxazol-3-yl)-cyclohexyl]-4H,6H-2,3,5,10b-tetraaza-benzo[e]azulene-5-carboxylic acid tert-butyl ester]	0.398
Cc1onc([C@H]2CC[C@H](c3nnc4n3-c3ccc(Cl)cc3CNC4)CC2)c1Cl [Example 43, trans-8-Chloro-1-[4-(4-chloro-5-methyl-isoxazol-3-yl)-cyclohexyl]-5,6-dihydro-4H-2,3,5,10b-tetraaza-benzo[e]azulene]	5.89
Cc1onc([C@H]2CC[C@H](c3nnc4n3-c3ccc(Cl)cc3CN(C)C4)CC2)c1Cl [Example 44, trans-8-Chloro-1-[4-(4-chloro-5-methyl-isoxazol-3-yl)-cyclohexyl]-5-methyl-5,6-dihydro-4H-2,3,5,10b-tetraaza-benzo[e]azulene]	0.603
Cc1onc([C@H]2CC[C@H](c3nnc4n3-c3ccc(Cl)cc3CN(C(=O)OC(C)(C)C)C4)CC2)c1F [Example 45, trans-8-Chloro-1-[4-(4-fluoro-5-methyl-isoxazol-3-yl)-cyclohexyl]-4H,6H-2,3,5,10b-tetraaza-benzo[e]azulene-5-carboxylic acid tert-butyl ester]	0.724
Cc1onc([C@H]2CC[C@H](c3nnc4n3-c3ccc(Cl)cc3CNC4)CC2)c1F [Example 46, trans-8-Chloro-1-[4-(4-fluoro-5-methyl-isoxazol-3-yl)-cyclohexyl]-5,6-dihydro-4H-2,3,5,10b-tetraaza-benzo[e]azulene]	8.51
Cc1onc([C@H]2CC[C@H](c3nnc4n3-c3ccc(Cl)cc3CN(C)C4)CC2)c1F [Example 47, trans-8-Chloro-1-[4-(4-fluoro-5-methyl-isoxazol-3-yl)-cyclohexyl]-5-methyl-5,6-dihydro-4H-2,3,5,10b-tetraaza-benzo[e]azulene]	0.575
CCc1cc([C@H]2CC[C@@H](c3nnc4n3-c3ccc(Cl)cc3CN(C(=O)OC(C)(C)C)C4)CC2)no1 [Example 48, cis-8-Chloro-1-[4-(5-ethyl-isoxazol-3-yl)-cyclohexyl]-4H,6H-2,3,5,10b-tetraaza-benzo[e]azulene-5-carboxylic acid tert-butyl ester]	8.32
CCc1cc([C@H]2CC[C@H](c3nnc4n3-c3ccc(Cl)cc3CN(C(=O)OC(C)(C)C)C4)CC2)no1 [Example 49, trans-8-Chloro-1-[4-(5-ethyl-isoxazol-3-yl)-cyclohexyl]-4H,6H-2,3,5,10b-tetraaza-benzo[e]azulene-5-carboxylic acid tert-butyl ester]	4.07
CCc1cc([C@H]2CC[C@@H](c3nnc4n3-c3ccc(Cl)cc3CNC4)CC2)no1 [Example 50, cis-8-Chloro-1-[4-(5-ethyl-isoxazol-3-yl)-cyclohexyl]-5,6-dihydro-4H-2,3,5,10b-tetraaza-benzo[e]azulene hydrochloride]	182
